Blank lines part the entries; values can stand above or below the compound they belong to.
Experiments:
glucocorticoid receptor = molecular target: T1, glucocorticoid receptor (Homo sapiens, UniProt P04150); settings: compared with parent CDB-4124; cited from earlier work
T1 sequence (P04150 1-777): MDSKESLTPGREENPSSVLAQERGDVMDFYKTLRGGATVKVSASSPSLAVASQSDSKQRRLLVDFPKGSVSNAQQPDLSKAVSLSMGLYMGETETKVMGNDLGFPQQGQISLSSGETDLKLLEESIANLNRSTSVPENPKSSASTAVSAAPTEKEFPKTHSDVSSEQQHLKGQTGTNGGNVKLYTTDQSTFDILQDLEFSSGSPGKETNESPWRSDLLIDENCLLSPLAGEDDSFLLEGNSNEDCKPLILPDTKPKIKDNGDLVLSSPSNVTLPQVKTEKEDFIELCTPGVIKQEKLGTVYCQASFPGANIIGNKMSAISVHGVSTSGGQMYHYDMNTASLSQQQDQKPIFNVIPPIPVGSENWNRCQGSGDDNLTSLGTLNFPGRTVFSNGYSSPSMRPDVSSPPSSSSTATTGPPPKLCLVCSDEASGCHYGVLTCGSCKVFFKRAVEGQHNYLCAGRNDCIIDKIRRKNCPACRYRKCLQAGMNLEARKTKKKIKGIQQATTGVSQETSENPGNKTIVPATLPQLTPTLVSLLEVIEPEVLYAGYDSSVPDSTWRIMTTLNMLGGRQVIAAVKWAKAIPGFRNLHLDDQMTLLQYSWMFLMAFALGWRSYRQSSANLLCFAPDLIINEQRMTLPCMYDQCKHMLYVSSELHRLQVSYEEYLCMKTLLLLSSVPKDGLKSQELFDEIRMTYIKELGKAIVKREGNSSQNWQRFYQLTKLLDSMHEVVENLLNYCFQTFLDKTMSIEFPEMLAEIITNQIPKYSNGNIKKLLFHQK

human endometrium = test: Six month endometriosis study: ultrasound measurements of endometrial thickness; format: in vivo
Text: Women in the study were closely monitored for changes in the structure of the endometrium. […] Comparisons were made to both baseline and visit one ultrasound measurements of endometrial thickness. […]

[1] = in vivo
Protocol: Thirty-nine pre-menopausal adult women diagnosed with endometriosis were the subject of a six month study of Proellex™ (CDB-4124) in the treatment of endometriosis. The study included three dose levels of CDB-4124 as well as a positive control arm. The positive control was Lucrin®, a GnRH agonist, commonly used for the treatment of endometriosis (also known as Lupron®). CDB-4124 was administered in a double blinded fashion as a daily oral capsule at dosages of 12.5mg/day (n=2), 25mg/day (n=3) and 50mg/day (n=3). Another group (n=4) were injected with a slow release formulation of Lucrin® once per month as a positive control.

[2] = system: pre-menopausal adult women diagnosed with endometriosis; test: Six month endometriosis study: pain diaries and pain intensity surveys; format: in vivo, human
Protocol: Pain reduction also occurred more rapidly than with the active control, Lucrin®. The response of pain to treatment in this study was analyzed in two ways. Patients in the study maintained daily pain diaries to record the severity and frequency of pain. In addition, at each office visit, patients filled out endometriosis symptom surveys that included a questionnaire that evaluated intensity of pain on a bad day on a scale of 0-10 with 10 being the greatest intensity. […] This decrease in duration of pain was statistically better (p=0.0012) than the 117.8 (74%; standard deviation 51.4 days) pain free days achieved with Lucrin n. […] Patients on CDB-4124 12.5 mg and 25 mg doses had 115.9 (66%; standard deviation 69.2 days) and 133.6 (75%; standard deviation 27.4 days) pain free days, respectively. […] The 25 mg and 12.5 mg doses of CDB-4124 were not statistically different from Lucrin®. […] The intensity of pain was asked by the question: “On a scale of 1-10, with 0 being no pain and 10 being extreme pain, how intense was your pain on a bad day?” The mean scores for intensity of pain at baseline were 6.3 for the CDB-4124 groups and 6.1 for the Lucrin® group. […] At month three all four active treatment groups had satistically significant reduction in pain compared with baseline, with the following scores: 3.7 (p=0.03) for 12.5 mg CDB-4124, 3.2 (p=0.03) for 25 mg CDB-4124, 1.6 (p=0.015) for 50 mg CDB-4124 and 1.5 (p=0.016) for Lucrin®. These dose related reductions continued until month six when the values for pain intensity were 2.0 (p=0.008), 2.8 (p=0.023), 0.6 (p=0.004) and 0.7 (p=0.016), respectively. Two months after stopping treatment pain returned and was of similar intensity in all four treatment groups.

[3] = Urinary estrogen levels (follicular phase) in cynomolgus monkeys; format: in vivo, Cynomolgus monkeys (Macaca fascicularis); set-up: Urinary estrogen, follicular phase, Mean: unit not given here; settings: for Urinary estrogen, follicular phase, Mean: CDB-4124 or RU-486 oral 1.0 mg/kg/day, Lupron IM once per month
Protocol: (§1) Cynomolgus monkeys (Macaca fascicularis) (n=14) were treated orally for 36 weeks with CDB-4124 or RU-486 at 1.0 mg/kg/day or with placebo (control). Another group (n=14) received Lupron® IM once per month. Urinary progesterone levels were measured for each animal for one month during the middle of the study (weeks 14-17) and for the last month of the study (weeks 33-36). The results are presented below:
Urinary estrogen levels were measured for each animal of Example 6 for one month during the middle of the study (weeks 14-17) and for the last month of the study (weeks 33-36). The follicular phase results are based on 35 baseline ovulating cycles.

[4] = system: Cynomolgus monkey endometrial epithelia, uterus stroma and breast; test: BrdU incorporation, tissue proliferation in cynomolgus monkeys; format: in vivo, Cynomolgus monkeys (Macaca fascicularis); settings: week 36, % cells positive for incorporation of BrdU, three animals per group
Protocol: At week 36, three animals from each group of Example 6 were injected within 24 hours of sacrifice with the thymidine analog bromodeoxyuridine (BrdU), a marker of proliferating cells and their progeny, to assess tissue proliferation. Full thickness uterine sections were stained and examined microscopically for evidence of proliferation in terms of the % cells positive for incorporation of BrdU: […]

[5] = Urinary progesterone levels (luteal phase) in cynomolgus monkeys; format: in vivo, Cynomolgus monkeys (Macaca fascicularis); settings: n=14 per group; CDB-4124 or RU-486 oral 1.0 mg/kg/day for 36 weeks; Lupron IM once per month
Protocol: as §1, with “33-36).” for “33-36). The results are presented below:”

[6] = system: Cynomolgus monkey endometrial epithelium, uterus stroma and breast; test: TUNEL apoptosis in cynomolgus monkey tissue; format: in vivo, Cynomolgus monkeys (Macaca fascicularis); settings: week 36, percent apoptotic cells
Protocol: Apoptosis was assessed in tissue from the same animals on slides by the terminal deoxynucleotidyl transferase mediated dUTP-biotin nick end labeling (TUNEL) technique.

Compound: CNc1ccc([C@H]2C[C@@]3(C)[C@@H](CC[C@]3(OC(C)=O)C(=O)COC)[C@@H]3CCC4=CC(=O)CCC4=C32)cc1 [CDB-4453, 21-methoxy-17α-acetoxy-11β-(4-N-methylaminophenyl)-19-norpregna-4,9-diene-3,20-dione]
anti-glucocorticoid activity (glucocorticoid receptor): even lower anti-glucocorticoid activity than its parent

biomarkers of bone resorption compared with baseline [1]: statistically significant increase
estrogen level [1]: < 20 pg/mL
Compound: CCNC(=O)[C@@H]1CCCN1C(=O)[C@H](CCCNC(=N)N)NC(=O)[C@H](CC(C)C)NC(=O)[C@@H](CC(C)C)NC(=O)[C@H](Cc1ccc(O)cc1)NC(=O)[C@H](CO)NC(=O)[C@H](Cc1c[nH]c2ccccc12)NC(=O)[C@H](Cc1c[nH]cn1)NC(=O)[C@@H]1CCC(=O)N1 [Lupron ®, leuprolide acetate]
thickening of the endometrium after three months (human endometrium; Lucrin, five women): did not have a thickening of the endometrium
Endometrium (mm), 1st dose (human endometrium; Lupron once per month, 1st dose visit): 7.5 mm
Endometrium (mm), 3 months (human endometrium; Lupron once per month, 3 months): 2.75 mm
Endometrium (mm), screening (human endometrium; Lupron once per month, screening (baseline)): 7.9 mm
mean score for intensity of pain on a bad day (scale 0-10) ([2]; baseline): 6.1
score for intensity of pain on a bad day (scale 0-10) ([2]; month six, Lucrin once per month): 0.7
score for intensity of pain on a bad day (scale 0-10) ([2]; month three, Lucrin once per month): 1.5
pain free days over the 180 day treatment period ([2]; women, Lucrin once per month): 117.8 days
pain free days, percent ([2]; women, Lucrin once per month, 180 day treatment period): 74%
days of pain over the first three months ([2]; women, Lucrin slow release injection once per month): 19.4 days
Follicular phase estrogen Lower? ([3]; Week 18): Yes
Urinary estrogen, follicular phase, Mean ([3]; Week 18): 49.9
Follicular phase estrogen Lower? ([3]; Week 36): Yes
Urinary estrogen, follicular phase, Mean ([3]; Week 36): 41.7
Breast Brdu-% [4]: 0.3 ± 0.1%
Uterus epithelium Brdu-% [4]: 3.1 ± 0.8%
Uterus stroma Brdu-% [4]: 2.2 ± 1.0%
Decrease in luteal phase progesterone (number of animals) [5]: 13
No decrease in luteal phase progesterone (number of animals) [5]: 1
Breast Apo % [6]: 1.4 ± 0.7%
Uterus epithelium Apo % [6]: 0.2 ± 0.1%
Uterus stroma Apo % [6]: 0.2 ± 0.1%

— patent US20090118253A1, “COMPOSITIONS AND METHODS FOR TREATING DYSFUNCTIONAL UTERINE BLEEDING” (REPROS THERAPEUTICS INC., priority 2007, published 2009)
